Data taken from article PMC12481569, “Novltex: A New Class of Antibiotics with Potent Activity against Multidrug-Resistant Bacterial Pathogens–Design, Synthesis, and Biological Evaluation” (Journal of Medicinal Chemistry, 2025).
Converted amounts (≈) assume the structure as drawn. Where two headings read alike, the source gives them in different places.

Tests used:
[1] = system: Multidrug-Resistant (MDR) S. aureus; assay: microbe, parasite or virus in culture; details: 24 h; for MIC: Staphylococcus aureus
Experimental: (§1) We further evaluated analogue 12 against multidrug-resistant (MDR) strains of S. aureus (acquired from the NARSA collection) and MDR E. faecium (acquired from International Health Management Associates, IHMA, Europe Sarl), comparing its activity to various classes of clinically used antibiotics (Table ).
(§2) MICs were performed as previously reported 4. For MIC testing all peptides were dissolved in DMSO.
(§3) Bacterial cultures were grown overnight on Mueller-Hinton Agar (MHA) plates and adjusted to a final inoculum of 10^5 – 10^6 CFU/mL. 100 µl of ino culum in Meuller -Hinton broth (MHB) was mixed with equal volume of peptides (dissolved in MHB) at 2x their concentration in a 96 well plate . For daptomycin MIC determination, the same protocol was followed with the addition of 50 mg/L calcium chloride to the medium. MIC values were determined in the media contain ing polysorbate 80 (0.002%, v/v) to prevent non -specific adsorption of the peptides to plastic surfaces. The final peptides concentrations ranged from 0.0625 – 32 µg/mL. The 96 well plates were then incubated at 37 °C for 24 h. All the experiments were performed in two independent duplicates and the MIC was determined as the lowest concentration in which no visible growth was observed.
(§4) Antibiotics MIC break points ( µg/mL)
(§5) Table. S4: Susceptibility cut-off values (MIC breakpoints) for various clinical antibiotics. […]

[2] = system: Multidrug-Resistant (MDR) E. faecium; assay: microbe, parasite or virus in culture; details: 24 h; for MIC: Enterococcus faecium
Experimental: as §1, §2, §3, §4, §5

[3] = Lipid II binding, spot-on-lawn assays on S. aureus ATCC 33591; parameters: species or system Staphylococcus aureus; details: lipid II (300 μM, 2 μL) at the edge of the antibiotic halo, overnight 37 °C, duplicates
Source text: 6 Spot-on-lawn assays to evaluate binding of Lipid II with analogue 12 on S. aureus ATCC 33591. (A) Analogue 12 was premixed with increasing ratios of lipid II (0.5 to 4 equiv) and spotted onto a seeded lawn of S. aureus 33591. Lipid II and analogue 12 were also spotted independently. The position of the analogue 12–lipid II mixture is marked in red. (B) Daptomycin was used as a negative control. Asterisks denote the positions of analogue 12 (black), lipid II (blue), and daptomycin (green) additions.
Analogue 12 was premixed with increasing ratios of lipid II (0.5 to 4 equiv) for 10 min prior to spotting onto agar plates seeded with a lawn of S. aureus ATCC 33591 and incubated overnight.
XII. Lipid II binding determination of analogue 12
Previously reported methods were used to determine the lipid II binding of analogue 126,7. The lipid II used in this study was prepared by chemical synthesis and its preparation and purification has been […]
A: An overnight culture of S. aureus ATCC 33591 was added to LB agar (45 °C) at a final concentration of 0.1% (vol/vol) and pour-plated into 90 mm petri dishes. Binding of 12 to purified lipid II was assessed using a spot-on-lawn assay. Premixed solutions (5 µL) containing analogue 12 (8 µg) with varying concentration of lipid II were spotted onto the agar, alongside individual controls of 12 and lipid II.
After drying, plates were incubated overnight at 37 °C. This assay was performed in duplicates.
B: To assess the interaction between analogue 12 and lipid II, a culture of S. aureus ATCC 33591 was grown overnight in LB broth and inoculated into LB agar at a final concentration of 1% (v/v) at 45°C.
This mixture was evenly distributed into 90mm petri dishes. Antibiotic inhibition haloes were previously determined by spotting analogue 12 and daptomycin (5 μL,8 µg/mL) onto agar plates and measuring the diameter of the halo after overnight incubation at 37 °C . The binding affinity of analogue 12 and lipid II was later examined by applying purified lipid II (300 μM, 2 μL) to the edge of the antibiotic halo. Analogue 12 and Daptomycin were applied to the inoculated agar plate at a spaced distance, once the antimicrobial solution drops had dried, lipid II was spotted on the edge of the inhibition halo. The plates were then incubated overnight at 37 °C. […]

MRSA ATCC 33591 [4] = assay: Time-kill kinetics; type: cell-based, Staphylococcus aureus; details: 5 μg/mL, MHB with 0.002% polysorbate 80, 37 °C, two independent experiments in duplicate
Experimental: Early-stage time-kill kinetics for analogue 12 against MRSA ATCC 33591 were performed using vancomycin as a control, following the protocol described in Section VIII, Supporting Information.
3 Time-kill kinetics of Novltex analogue 12 and clinical antibiotic (vancomycin) against MRSA 33591. […] Results are the mean ± SD of two independent experiments performed in duplicate.
as §2, §3, §4
Table. […]

MRSA ATCC 33591 [5] = assay: microbe, parasite or virus in culture; type: cell-based, Staphylococcus aureus; details: Staphylococcus aureus, 24 h, read-out: MIC against MRSA ATCC 33591
Experimental: as §2
as §3, with “observed. […]” for “observed.”

Row | Structure (SMILES) | MIC, Staphylococcus aureus NR 45914 ([1]; MDR strain NR 45914, MHB, 0.002% polysorbate 80, 37 °C, daptomycin with 50 mg/L calcium chloride) | MIC, Staphylococcus aureus NR 45926 ([1]; MDR strain NR 45926, MHB, 0.002% polysorbate 80, 37 °C, daptomycin with 50 mg/L calcium chloride) | MIC, Staphylococcus aureus NR 45930 ([1]; MDR strain NR 45930, MHB, 0.002% polysorbate 80, 37 °C, daptomycin with 50 mg/L calcium chloride) | MIC, Staphylococcus aureus NR 46062 ([1]; MDR strain NR 46062, MHB, 0.002% polysorbate 80, 37 °C, daptomycin with 50 mg/L calcium chloride) | MIC, Enterococcus faecium 1563254 ([2]; MDR clinical isolate 1563254, MHB, 0.002% polysorbate 80, 37 °C, daptomycin with 50 mg/L calcium chloride) | MIC, Enterococcus faecium 1581582 ([2]; MDR clinical isolate 1581582, MHB, 0.002% polysorbate 80, 37 °C, daptomycin with 50 mg/L calcium chloride) | MIC, Enterococcus faecium 1766686 ([2]; MDR clinical isolate 1766686, MHB, 0.002% polysorbate 80, 37 °C, daptomycin with 50 mg/L calcium chloride) | halo distortion on addition of lipid II [3] | MIC ([1]; read-out: MIC, Staphylococcus aureus NR 45914) | MIC ([1]; read-out: MIC, Staphylococcus aureus NR 45926) | MIC ([1]; read-out: MIC, Staphylococcus aureus NR 45930) | MIC ([1]; read-out: MIC, Staphylococcus aureus NR 46062) | MIC ([2]; read-out: MIC, Enterococcus faecium 1563254) | MIC ([2]; read-out: MIC, Enterococcus faecium 1581582) | MIC ([2]; read-out: MIC, Enterococcus faecium 1766686) | time to similar bacterial killing (MRSA ATCC 33591 [4]) | MIC (MRSA ATCC 33591 [5])
1 | CCCCCCCCCC(=O)N[C@@H](Cc1c[nH]c2ccccc12)C(=O)N[C@H](CC(N)=O)C(=O)N[C@@H](CC(=O)O)C(=O)N[C@@H]1C(=O)NCC(=O)N[C@@H](CCCN)C(=O)N[C@@H](CC(=O)O)C(=O)N[C@H](C)C(=O)N[C@@H](CC(=O)O)C(=O)NCC(=O)N[C@H](CO)C(=O)N[C@@H]([C@H](C)CC(=O)O)C(=O)N[C@@H](CC(=O)c2ccccc2N)C(=O)O[C@@H]1C [Daptomycin] | 2 µg/mL (≈ 1.23 µM) | 4 µg/mL (≈ 2.47 µM) | 2 µg/mL (≈ 1.23 µM) | 2 µg/mL (≈ 1.23 µM) | >32 µg/mL | >32 µg/mL | >32 µg/mL | maintained a distinct circular inhibition zone | – | – | – | – | – | – | – | – | –
2 | CN[C@H](CC(C)C)C(=O)N[C@H]1C(=O)N[C@@H](CC(N)=O)C(=O)N[C@H]2C(=O)N[C@H]3C(=O)N[C@H](C(=O)N[C@H](C(=O)O)c4cc(O)cc(O)c4-c4cc3ccc4O)[C@H](O)c3ccc(c(Cl)c3)Oc3cc2cc(c3O[C@@H]2O[C@H](CO)[C@@H](O)[C@H](O)[C@H]2O[C@H]2C[C@](C)(N)[C@H](O)[C@H](C)O2)Oc2ccc(cc2Cl)[C@H]1O [Vancomycin] | – | – | – | – | – | – | – | – | 1 µg/mL (≈ 0.69 µM) | 0.5 µg/mL (≈ 0.345 µM) | 1 µg/mL (≈ 0.69 µM) | 2 µg/mL (≈ 1.38 µM) | > 32 µg/mL | > 32 µg/mL | > 32 µg/mL | 24 h | 0.5 to 1 µg/mL (≈ 0.345 to 0.69 µM)
